Patent US12577217B2, “15-PGDH inhibitor” (KYORIN Pharmaceutical Co., Ltd., priority 2019, dated 2026)
Where a name gives a salt, the structure may show the parent alone.

Target: T1, recombinant human 15-PGDH (Homo sapiens, UniProt P15428)
T1 construct: purchased R&D Systems
T1 sequence (P15428 1-266): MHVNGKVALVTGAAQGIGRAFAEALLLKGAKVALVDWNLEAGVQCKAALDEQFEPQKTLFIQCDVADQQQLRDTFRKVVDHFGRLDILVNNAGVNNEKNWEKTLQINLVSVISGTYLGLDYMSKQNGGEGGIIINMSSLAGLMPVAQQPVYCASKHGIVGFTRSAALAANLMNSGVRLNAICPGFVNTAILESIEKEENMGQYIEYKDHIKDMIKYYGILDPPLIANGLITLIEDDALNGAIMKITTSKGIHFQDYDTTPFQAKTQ
Test: 15-PGDH enzyme inhibition test
Format: biochemical
Details: 4 nM recombinant human 15-PGDH, 30 μM PGE2, 1 mM NAD+, 60 minutes after starting the reaction; read-out: IC50 Value
Outline: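 Fluorescence (excitation 340 nm, emission 440 nm) measured 60 min after adding 1 mM NAD+ and 30 μM PGE2 to 4 nM recombinant human 15-PGDH, which had stood 12 min at room temperature with compound in pH 8.0 Tris-HCl buffer. Concentration-response curves yield IC50, binned into potency categories.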

SMILES	IC50 [nM]
O=C(c1cnc2c(c1)OCCN2c1ccn2c(=O)n(CC(F)(F)F)nc2c1)N1CCCCC1 [Example 27-3]	< 10
O=C(c1cnc2c(c1)OCCN2c1ccn2c(=O)n(Cc3ccc(F)cc3)nc2c1)N1CCC(F)(F)CC1 [Example 27-4]	< 10
O=C(c1cnc2c(c1)OCCN2c1ccn2c(=O)n(Cc3ccc(F)cc3F)nc2c1)N1CCC(F)(F)CC1 [Example 27-5]	< 10
O=C(c1cnc2c(c1)OCCN2c1ccn2c(=O)n(Cc3ccc(F)c(F)c3)nc2c1)N1CCC(F)(F)CC1 [Example 27-6]	< 10
O=C(c1cnc2c(c1)OCCN2c1ccn2c(=O)n(Cc3ccnc(Cl)c3)nc2c1)N1CCC(F)(F)CC1 [Example 27-7]	< 10
O=C(c1cnc2c(c1)OCCN2c1ccn2c(=O)n(CC(F)(F)F)nc2c1)N1CCC(F)(F)CC1 [Example 27-8]	< 10
Cn1nc2cc(N3CCNc4cc(C(=O)N5CCC(F)(F)CC5)cnc43)ccn2c1=O [Example 28-2]	< 10
CN1CCN(c2ccn3c(=O)n(C)nc3c2)c2ncc(C(=O)N3CCCCC3)cc21 [Example 29-1, 2-Methyl-7-(l-methyl-7-(piperidine-1-carbonyl)-2,3-dihydropyrido[2,3-b]pyrazin-4(1H)-yl)-[1,2,4]triazolo[4,3-a]pyridin-3(2H)-one]	< 10
COCCN1CCN(c2ccn3c(=O)n(C)nc3c2)c2ncc(C(=O)N3CCCCC3)cc21 [Example 29-2]	< 10
CC(=O)N1CCN(c2ccn3c(=O)n(C)nc3c2)c2ncc(C(=O)N3CCCCC3)cc21 [Example 29-3]	< 10
CN1CCN(c2ccn3c(=O)n(C)nc3c2)c2ncc(C(=O)N3CCC(F)(F)CC3)cc21 [Example 29-4]	< 10
CCN1CCN(c2ccn3c(=O)n(C)nc3c2)c2ncc(C(=O)N3CCC(F)(F)CC3)cc21 [Example 29-5]	< 10

Other lines, results leading:

IC50 [nM]	SMILES
10 to 100	Cn1nc2cc(N3CCN(c4ccccc4)c4cc(C(=O)N5CCC(F)(F)CC5)cnc43)ccn2c1=O [Example 30-1, 7-(7-(4,4-Difluoropiperidine-1-carbonyl)-1-phenyl-2,3-dihydropyrido[2,3-b]pyrazin-4(1H)-yl)-2-methyl-[1,2,4]triazolo[4,3-a]pyridin-3 (2H)-one]
10 to 100	Cn1nc2cc(N3CCN(c4ccc(C#N)cc4)c4cc(C(=O)N5CCC(F)(F)CC5)cnc43)ccn2c1=O [Example 30-2]
10 to 100	COC(=O)c1ccc(N2CCN(c3ccn4c(=O)n(C)nc4c3)c3ncc(C(=O)N4CCC(F)(F)CC4)cc32)cc1 [Example 30-3]
< 10	Cn1nc2cc(N3CCN(c4ncc(Cl)s4)c4cc(C(=O)N5CCC(F)(F)CC5)cnc43)ccn2c1=O [Example 30-4]
> 100	Cn1nc2cc(N3CCN(c4cccnc4)c4cc(C(=O)N5CCC(F)(F)CC5)cnc43)ccn2c1=O [Example 30-5]
> 100	CC(=O)NC(C)(C)c1ccc(N2CCOc3cc(C(=O)N4CCCCC4)cnc32)cc1 [Example 31-1]
> 100	CC(C)(NS(C)(=O)=O)c1ccc(N2CCOc3cc(C(=O)N4CCCCC4)cnc32)cc1 [Example 31-2]
> 100	CNC1CCCN(C(=O)c2cnc3c(c2)OCCN3c2ccn3c(=O)n(C)nc3c2)C1 (stereo not drawn) [Example 32-1, 2-Methyl-7-(7-(3-(methylamino)piperidine-1-carbonyl)-2,3-dihydro-4H-pyrido[3,2-b][1,4]oxazin-4-yl)-[1,2,4]triazolo[4,3-a]pyridin-3(2H)-one Trifluoroacetate]
> 100	CN(C)C1CCCN(C(=O)c2cnc3c(c2)OCCN3c2ccn3c(=O)n(C)nc3c2)C1 (stereo not drawn) [Example 33-1, 7-(7-(3-(Dimethylamino)piperidine-1-carbonyl)-2,3-dihydro-4H-pyrido[3,2-b] [1,4]oxazin-4-yl)-2-methyl-[1,2,4]triazolo[4,3-a]pyridin-3(2H)-one]
> 100	CC(=O)N(C)C1CCCN(C(=O)c2cnc3c(c2)OCCN3c2ccn3c(=O)n(C)nc3c2)C1 (stereo not drawn) [Example 34-1, N-Methyl-N-(1-(4-(2-methyl-3-oxo-2,3-dihydro-[1,2,4]triazolo[4,3-a]pyridin-7-yl)-3,4-dihydro-2H-pyrido[3,2-b][1,4]oxazin-7-carbonyl)piperidin-3-yl)acetamide]
> 100	Cn1nc2cc(N3CCOc4cc(C(=O)N5CCC[C@H]5C(=O)O)cnc43)ccn2c1=O [Example 35-1, (4-(2-Methyl-3-oxo-2,3-dihydro-[1,2,4]triazolo[4,3-a]pyridin-7-yl)-3,4-dihydro-2H-pyrido[3,2-b][1,4]oxazine-7-carbonyl)-L-proline]
> 100	Cn1nc2cc(N3CCOc4cc(C(=O)N5CCC[C@@H]5C(=O)O)cnc43)ccn2c1=O [Example 35-2]
> 100	Cn1nc2cc(N3CCOc4cc(C(=O)N5CCC[C@H]5C(N)=O)cnc43)ccn2c1=O [Example 36-1, (S)-1-(4-(2-Methyl-3-oxo-2,3-dihydro-[1,2,4]triazolo[4,3-a]pyridin-7-yl)-3,4-dihydro-2H-pyrido[3,2-b][1,4]oxazine-7-carbonyl)pyrrolidine-2-carboxamide]
> 100	Cn1nc2cc(N3CCOc4cc(C(=O)N5CCC[C@@H]5C(N)=O)cnc43)ccn2c1=O [Example 36-2]
< 10	Cn1nc2cc(N3CCOc4cc(C(=O)N5C=CCCC5)cnc43)ccn2c1=O [Example 37-1, 2-Methyl-7-(7-(1,2,3,4-tetrahydropyridine-1-carbonyl)-2,3-dihydro-4H-pyrido[3,2-b][1,4]oxazin-4-yl)-[1,2,4]triazolo[4,3-a]pyridin-3(2H)-one]
